# According to patent publication US5702935A, “Method and compounds for inhibiting lipid biosynthesis of bacteria and plants” (priority 1994, dated 1997):
# pKd: −log10 of the molar value. Entries after “also recorded” stand apart in the source; their conditions may differ.
# Tests used:
# [1] = system: mycolic acid biosynthesis; type: biochemical, M. smegmatis
# [2] = system: Brassica enoyl-ACP reductase; conditions: read-out: steady-state Michaelis constant; cited from earlier work
# InhA [3] = target: T1, InhA (Mycobacterium tuberculosis, UniProt P9WGR1); experiment: Microcalorimetry binding of adenine dinucleotides to InhA; set-up: species or system M. tuberculosis; conditions: for binding to InhA (in words): microcalorimetry, dinucleotide 0-100 μM
# T1 sequence (P9WGR1 whole entry, looked up): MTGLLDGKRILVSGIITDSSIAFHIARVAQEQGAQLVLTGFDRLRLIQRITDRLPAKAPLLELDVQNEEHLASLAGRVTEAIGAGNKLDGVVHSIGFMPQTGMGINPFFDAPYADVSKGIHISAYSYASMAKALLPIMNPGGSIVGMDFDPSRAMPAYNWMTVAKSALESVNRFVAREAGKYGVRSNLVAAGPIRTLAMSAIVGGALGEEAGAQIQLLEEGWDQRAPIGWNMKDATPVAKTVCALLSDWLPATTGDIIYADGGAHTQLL
# [4] = system: NADH-dependent enoyl-CoA reductase of M. smegmatis; conditions: read-out: steady-state Michaelis constant; cited from earlier work
# [5] = system: NC(=O)C1=CN([C@@H]2O[C@H](COP(=O)(O)OP(=O)(O)OC[C@H]3O[C@@H](n4cnc5c(N)ncnc54)[C@H](O)[C@@H]3O)[C@@H](O)[C@H]2O)C=CC1; experiment: purified protein, by the assay type; conditions: other: InhA-catalyzed reduction of 2-transoctenoyl-ACP, other substrate saturating
# InhA [6] = target: T1, InhA; experiment: Spectrophotometric (340 nm) assay of InhA-catalyzed NADH-dependent reduction, substrate test and steady-state kinetics
compound,measurement,setting,value
NNC(=O)c1ccncc1 [isoniazid],isoniazid-inhibition of mycolic acid biosynthesis (in words),[1],marked resistance to isoniazid-inhibition
octenoyl-ACP,Km,[2],< 1 µM
NC(=O)C1=CN([C@@H]2O[C@H](COP(=O)(O)OP(=O)(O)OC[C@H]3O[C@@H](n4cnc5c(N)ncnc54)[C@H](O)[C@@H]3O)[C@@H](O)[C@H]2O)C=CC1 [NADH],"binding stoichiometry, molecules per dimer of InhA","InhA [3]; 37° C., 50 mM Tris pH 7.3",two
same,enthalpy of binding,"InhA [3]; 37° C., 50 mM Tris pH 7.3",-13.5 kcal/mol
same,binding to InhA (in words),InhA [3],tight and stoichiometric binding
same,pKd,"InhA [3]; titration calorimetry, 37° C., 50 mM Tris pH 7.3, 100 μM InhA, read-out: Kd (binding constant) for binding to InhA",5.70
same,Km,[2],7.6 µM
same,Km,[4],21 µM
NC(=O)C1=CN([C@@H]2O[C@H](COP(=O)(O)OP(=O)(O)OC[C@H]3O[C@@H](n4cnc5c(N)ncnc54)[C@H](OP(=O)(O)O)[C@@H]3O)[C@@H](O)[C@H]2O)C=CC1 [NADPH],binding to InhA (in words),InhA [3],"Neither NADPH, NADP nor NAD exhibited significant binding; also recorded: failed to show appreciable binding affinity"
NC(=O)c1ccc[n+]([C@@H]2O[C@H](COP(=O)([O-])OP(=O)(O)OC[C@H]3O[C@@H](n4cnc5c(N)ncnc54)[C@H](OP(=O)(O)O)[C@@H]3O)[C@@H](O)[C@H]2O)c1 [NADP],binding to InhA (in words),InhA [3],"Neither NADPH, NADP nor NAD exhibited significant binding; also recorded: failed to show appreciable binding affinity"
CCCCC/C=C/C(=O)SCCNC(=O)CCNC(=O)[C@H](O)C(C)(C)COP(=O)(O)OP(=O)(O)OC[C@H]1O[C@@H](n2cnc3c(N)ncnc32)[C@H](O)[C@@H]1OP(=O)(O)O [octenoyl-CoA],Km,[4],232 µM
InhA (Mycobacterium tuberculosis H37Rv),Km,[5],8 µM
NC(=O)c1ccc[n+]([C@@H]2O[C@H](COP(=O)([O-])OP(=O)(O)OC[C@H]3O[C@@H](n4cnc5c(N)ncnc54)[C@H](O)[C@@H]3O)[C@@H](O)[C@H]2O)c1 [NAD],binding to InhA (in words),InhA [3],"Neither NADPH, NADP nor NAD exhibited significant binding; also recorded: failed to show appreciable binding affinity"
2-transoctenoyl-ACP,maximum velocity,InhA [6]; InhA-catalyzed reduction of 2-transoctenoyl-ACP by NADH,1570 µM/min/mg
same,activity as substrate for InhA in the presence of NADH,InhA [6]; measured spectrophotometrically at 340 nm,Activity was demonstrated
same,Km,"InhA [6]; read-out: steady-state Km, InhA-catalyzed reduction of 2-transoctenoyl-ACP, other substrate saturating",2 µM
